From the Kinase Knowledgebase extract (Sharma et al. 2016)
Several values for one entry are separate records, joined by “and”; a condition that tells them apart may be missing. Equal values may be shown once.

biological target: MAPK14 (human) (UniProt Q16539); experiment: Inhibition of MAPK14 Kinase Activity; details: THP.1 monocytic
Sequence (Q16539 whole entry, looked up): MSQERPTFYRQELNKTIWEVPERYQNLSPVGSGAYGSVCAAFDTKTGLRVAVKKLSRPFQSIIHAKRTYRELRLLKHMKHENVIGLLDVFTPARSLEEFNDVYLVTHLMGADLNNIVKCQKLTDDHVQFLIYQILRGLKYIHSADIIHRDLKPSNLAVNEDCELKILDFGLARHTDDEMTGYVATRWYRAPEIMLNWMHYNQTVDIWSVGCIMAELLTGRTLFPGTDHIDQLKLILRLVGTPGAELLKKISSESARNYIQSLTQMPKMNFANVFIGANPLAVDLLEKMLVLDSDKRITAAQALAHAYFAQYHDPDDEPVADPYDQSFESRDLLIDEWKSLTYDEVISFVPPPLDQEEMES

Row | SMILES | IC50
1 | O=c1c(Br)c(OCc2ccc(F)cc2F)cc(CN2CCOCC2)n1-c1c(F)cccc1F | < 1 µM
2 | O=C(O)c1cc(OCc2ccc(F)cc2F)c(Br)c(=O)n1-c1c(F)cccc1F | 1 to 25 µM
3 | Cc1cc(OCc2ccc(F)cc2F)c(Cl)c(=O)n1-c1cccc(C(=O)O)c1 | 1 to 25 µM
4 | O=c1c(Cl)c(OCc2ccc(F)cc2F)cc(CO)n1-c1c(F)cccc1F | < 1 µM
5 | CCOC(=O)c1cnc(Cn2c(C)cc(OCc3ccc(F)cc3F)c(Cl)c2=O)cn1 | < 1 µM
6 | O=c1c(Cl)c(OCc2ccc(F)cc2F)cc(CO)n1-c1c(F)cc(F)cc1F | < 1 µM
7 | Cc1cc(OCc2ccc(F)cc2F)c(Cl)c(=O)n1Cc1cnc(CO)cn1 | 1 to 25 µM
8 | Cc1cc(OCc2ccc(F)cc2F)c(Br)c(=O)n1CC1CC1 | < 1 µM
9 | O=c1c(Br)c(OCc2ccccc2)ccn1CC1CCNCC1 | 25 to 100 µM
10 | Cc1cccc(C)c1-n1c(C)cc(OCc2c(F)cc(F)cc2F)c(Br)c1=O | < 1 µM
11 | COCCN(C)C(=O)c1cccc(-n2c(C)cc(OCc3ccc(F)cc3F)c(Br)c2=O)c1 | 1 to 25 µM
12 | O=c1c(Br)c(OCc2ccc(F)cc2F)cc(CO)n1-c1c(F)cc(F)cc1F | < 1 µM
13 | CCOC(=O)CNc1nc(C)ncc1Cn1c(C)cc(OCc2ccc(F)cc2F)c(Br)c1=O | 1 to 25 µM
14 | Cc1ccc(CN(C)C)cc1-n1c(C)cc(OCc2ccc(F)cc2F)c(Br)c1=O | 1 to 25 µM
15 | Cc1cc(OCc2ccccc2)cc(=O)n1Cc1ccccc1 | 25 to 100 µM
16 | Cc1cc(OCc2ccc(F)cc2F)c(Br)c(=O)n1-c1c(F)cc(Br)cc1F | < 1 µM
17 | Cc1c(OCc2ccccc2)ccn(Cc2cccc(F)c2)c1=O | 1 to 25 µM
18 | O=c1c(Br)c(OCc2ccccc2)ccn1Cc1ccc(Br)cc1 | < 1 µM
19 | O=c1cc(OCc2ccccc2Cl)ccn1Cc1ccccc1 | 25 to 100 µM
20 | Cc1ccc(C(N)=O)cc1-n1c(C)cc(OCc2ccc(F)cc2F)c(Cl)c1=O | < 1 µM

Row | SMILES | IC50
21 | O=c1c(C(F)(F)F)c(OCc2ccccc2)ccn1Cc1cccc(F)c1 | 25 to 100 µM
22 | O=c1cc(OCc2ccccc2)ccn1Cc1ccc(OC(F)(F)F)cc1 | 25 to 100 µM
23 | Cc1cc(OCc2ccc(F)cc2F)c(Br)c(=O)n1-c1c(F)cc(N2CCOCC2)cc1F | < 1 µM
24 | COC(=O)c1ccc(C)c(-n2c(C)cc(OCc3ccc(F)cc3F)c(Cl)c2=O)c1 | < 1 µM
25 | Cc1cc(OCc2ccc(F)cc2F)c(Br)c(=O)n1-c1cccc(C(N)=O)c1 | < 1 µM
26 | O=c1c(Br)c(CCc2ccccc2)ccn1Cc1ccccc1 | 1 to 25 µM
27 | Cc1cc(OCc2ccc(F)cc2F)c(Br)c(=O)n1-c1cc(C(N)=O)ccc1F | < 1 µM
28 | Cc1cc(OCc2ccc(F)cc2F)c(Cl)c(=O)n1-c1cc(CO)ccc1Cl | < 1 µM
29 | C=Cc1c(OCc2ccccc2)ccn(Cc2ccccc2)c1=O | 25 to 100 µM
30 | O=c1c(Br)c(CCc2ccccc2)ccn1Cc1cccc(F)c1 | 1 to 25 µM
31 | COCCNC(=O)c1cccc(-n2c(C)cc(OCc3ccc(F)cc3F)c(Br)c2=O)c1 | < 1 µM
32 | N#Cc1ccccc1Cn1ccc(OCc2ccccc2)c(Br)c1=O | 1 to 25 µM
33 | Cc1ccc(Cn2ccc(OCc3ccccc3)cc2=O)cc1 | 25 to 100 µM
34 | O=c1c(Br)c(OCc2ccccc2Cl)ccn1Cc1ccccc1 | 1 to 25 µM
35 | Cc1cc(OCc2ccc(F)cc2F)c(Br)c(=O)n1-c1cccc(C(=O)NCCN(C)C)c1 | < 1 µM
36 | C=CCNc1c(I)c(C)n(-c2c(F)cccc2F)c(=O)c1Br | 1 to 25 µM
37 | Cc1c(C(O)CO)c(OCc2ccc(F)cc2F)c(Br)c(=O)n1-c1c(F)cccc1F (stereo not drawn) | 25 to 100 µM
38 | O=c1c(Br)c(OCc2ccccc2)ccn1Cc1cccc(F)c1 | < 1 µM
39 | Cc1cc(OCc2ccc(F)cc2F)c(Br)c(=O)n1-c1cccc(C(=O)NC(C)C)c1 | < 1 µM
40 | COC(=O)c1ccc(-n2c(C)cc(OCc3ccc(F)cc3F)c(Br)c2=O)c(Cl)c1 | < 1 µM

Row | SMILES | IC50
41 | CNC(=O)c1ccc(C)c(-n2c(C)cc(OCc3ccc(F)cc3F)c(Cl)c2=O)c1 | < 1 µM
42 | O=c1c(Br)c(O)ccn1Cc1ccc(O)cc1 | > 100 µM
43 | CCOC(=O)c1cccc(-n2c(C)cc(OCc3ccc(F)cc3F)c(Br)c2=O)c1 | < 1 µM
44 | Cc1cc(OCc2ccc(F)cc2F)c(Cl)c(=O)n1-c1cc(CN)ccc1F | < 1 µM
45 | O=c1c(Br)c(OCc2ccccc2)ccn1CC1CCCNC1 (stereo not drawn) | > 100 µM
46 | O=c1cc(OCc2cccc(Cl)c2)ccn1Cc1ccccc1 | 25 to 100 µM
47 | O=c1c(Br)c(OCc2ccccc2)ccn1Cc1ccccc1F | < 1 µM
48 | Cc1cc(OCc2ccc(F)cc2F)c(Br)c(=O)n1-c1ccc(C(C)(C)O)cn1 | > 100 µM
49 | O=c1cc(OCc2c(Cl)cccc2Cl)ccn1Cc1ccccc1 | > 100 µM
50 | O=c1c(Br)c(OCc2ccccc2)c(Br)cn1Cc1ccccc1 | > 100 µM
51 | O=c1cc(OCc2ccccc2)ccn1Cc1ccc(Br)cc1 | > 100 µM
52 | Cc1cc(OCc2ccc(F)cc2F)c(Cl)c(=O)n1-c1c(F)cccc1F | < 1 µM
53 | COc1ccc(C(=O)N(C)C)cc1-n1c(C)cc(OCc2ccc(F)cc2F)c(Br)c1=O | < 1 µM
54 | N#Cc1ccc(Cn2ccc(OCc3ccccc3)c(Br)c2=O)cc1 | < 1 µM
55 | Cc1c(CO)c(OCc2ccc(F)cc2F)c(Br)c(=O)n1-c1c(F)cccc1F | 1 to 25 µM
56 | Cc1c(C=O)c(OCc2ccc(F)cc2F)c(Br)c(=O)n1-c1c(F)cccc1F | 25 to 100 µM
57 | Cc1ccc(CO)cc1-n1c(C)cc(OCc2ccc(F)cc2F)c(Cl)c1=O | < 1 µM
58 | Cc1cccc(C)c1-n1c(C)cc(OCc2ccc(F)cc2F)c(Br)c1=O | < 1 µM
59 | Cc1cc(OCc2ccc(F)cc2F)c(Cl)c(=O)n1-c1c(F)cc(N2CCN(C)CC2)cc1F | < 1 µM
60 | CCOC(=O)CCn1ccc(OCc2ccccc2)c(Br)c1=O | 1 to 25 µM

Further lines, results first:

Row | IC50 | SMILES
61 | 1 to 25 µM | Cc1cc(NCc2ccc(F)cc2F)c(Cl)c(=O)n1-c1c(F)cccc1F
62 | 1 to 25 µM | O=c1c(Br)c(NCc2ccc(Cl)cc2F)ccn1Cc1cccc(F)c1
63 | < 1 µM | Cc1cnc(Cn2c(C)cc(OCc3ccc(F)cc3F)c(Br)c2=O)cn1
64 | < 1 µM | Cc1cc(OCc2ccc(F)cc2F)c(Br)c(=O)n1Cc1ccc(S(=O)(=O)N(C)C)cc1
65 | 1 to 25 µM | Cc1cc(OCc2ccc(F)cc2F)c(Br)c(=O)n1Cc1ccnc(CN)n1
66 | < 1 µM | Cc1cc(OCc2ccc(F)cc2F)c(Br)c(=O)n1Cc1cccc(CN2CCCCC2)c1
67 | 1 to 25 µM | Cc1cc(OCc2ccc(F)cc2F)c(Br)c(=O)n1Cc1cccc(CNC(N)=O)c1
68 | < 1 µM and 1 to 25 µM | CNC(=O)c1ccc(Cn2c(C)cc(OCc3ccc(F)cc3F)c(Br)c2=O)cc1
69 | < 1 µM | Cc1cc(OCc2ccc(F)cc2F)c(Br)c(=O)n1-c1ccc(CNC(=O)CO)cc1
70 | < 1 µM | Cc1cc(OCc2ccc(F)cc2F)c(Br)c(=O)n1Cc1cccc(CNS(C)(=O)=O)c1
71 | < 1 µM | Cc1cc(OCc2ccc(F)cc2F)c(Br)c(=O)n1Cc1ccc(C(=O)NCCN)cc1
72 | > 100 µM | Cc1cc(OCc2ccc(F)cc2F)c(Br)c(=O)n1-c1ccc(C(=O)NO)cc1
73 | 1 to 25 µM | C=CCNc1cc(C)n(-c2c(F)cccc2F)c(=O)c1Br
74 | < 1 µM | C=CCn1c(C)cc(OCc2ccc(F)cc2F)c(Br)c1=O
75 | 1 to 25 µM | O=c1c(Br)c(NCc2ccccc2)ccn1Cc1cccc(F)c1
76 | 1 to 25 µM | Cc1ccc(CNC(C)C)cc1-n1c(C)cc(OCc2ccc(F)cc2F)c(Br)c1=O
77 | 25 to 100 µM | N#Cc1ccc(COc2ccn(Cc3cccc(F)c3)c(=O)c2Br)cc1
78 | 1 to 25 µM | O=c1c(Br)c(OCc2ccc(C(F)(F)F)cc2)ccn1Cc1cccc(F)c1
79 | 1 to 25 µM | Cc1cc(OCc2ccc(F)cc2F)c(Br)c(=O)n1-c1ccc(C(N)=O)cc1
80 | 1 to 25 µM | CC(C)(C)c1ccc(Cn2ccc(OCc3ccc(F)cc3F)c(Br)c2=O)cc1
81 | 1 to 25 µM | Cc1c(I)c(NCc2ccccc2)c(Br)c(=O)n1-c1c(F)cccc1F
82 | 25 to 100 µM | Cc1c(Br)c(OCc2ccccc2)c(Br)c(=O)n1Cc1ccccc1
83 | 1 to 25 µM | Cc1cc(OCc2ccc(F)cc2F)c(Br)c(=O)n1-c1cccc(CNC(N)=O)c1
84 | 1 to 25 µM | COC(=O)NCc1cccc(-n2c(C)cc(OCc3ccc(F)cc3F)c(Br)c2=O)c1

Row | IC50 | SMILES
85 | < 1 µM | Cc1cc(NCc2ccc(F)cc2)c(Br)c(=O)n1Cc1ccc(F)cc1
86 | 1 to 25 µM | CNC(=O)c1cnc(Cn2c(C)cc(OCc3ccc(F)cc3F)c(Br)c2=O)cn1
87 | < 1 µM | Cc1cc(OCc2ccc(F)cc2F)c(Br)c(=O)n1-c1ccc2cn[nH]c2c1
88 | 1 to 25 µM | Cc1cc(CCc2ccccc2)c(Br)c(=O)n1Cc1cccc(F)c1
89 | 1 to 25 µM | CNC(=O)NCc1cccc(-n2c(C)cc(OCc3ccc(F)cc3F)c(Br)c2=O)c1
90 | 1 to 25 µM | CC(=O)OCC(=O)NCc1cccc(-n2c(C)cc(OCc3ccc(F)cc3F)c(Br)c2=O)c1
91 | 1 to 25 µM | Cc1cc(OCc2ccc(F)cc2F)c(Br)c(=O)n1-c1cccc(CNC(=O)CO)c1
92 | < 1 µM | Cc1cc(OCc2ccc(F)cc2F)c(Br)c(=O)n1Cc1ccc(C(=O)NCCCN)cc1
93 | > 100 µM | O=c1c(Br)c(NCc2ccc(F)cc2C(F)(F)F)ccn1Cc1cccc(F)c1
94 | < 1 µM | Cc1cc(OCc2ccc(F)cc2F)c(Br)c(=O)n1Cc1cnc(CO)cn1
95 | 1 to 25 µM | Cc1cc(OCc2ccc(F)cc2F)c(Br)c(=O)n1Cc1ccccc1CN
96 | 1 to 25 µM | Cc1cc(OCc2ccc(F)cc2F)c(Br)c(=O)n1Cc1ccccc1C(N)=O
97 | < 1 µM | CC(=O)Nc1ccc(Cn2c(C)cc(OCc3ccc(F)cc3F)c(Br)c2=O)cc1
98 | < 1 µM | Cc1cc(OCc2ccc(F)cc2F)c(Br)c(=O)n1-c1ccc(C(=O)NCCCN)cc1
99 | > 100 µM | CNC(=O)c1ccc(-n2c(C)cc(OCc3ccc(F)cc3F)c(Br)c2=O)cc1
100 | < 1 µM | Cc1cccc(COc2ccn(Cc3cccc(F)c3)c(=O)c2Br)c1
101 | < 1 µM | CNC(=O)c1cccc(-n2c(C)cc(OCc3ccc(F)cc3F)c(Br)c2=O)c1
102 | < 1 µM and 1 to 25 µM | Cc1cc(OCc2ccc(F)cc2F)c(Br)c(=O)n1Cc1ccc(C(=O)NO)cc1
103 | < 1 µM | Cc1cc(OCc2ccc(F)cc2F)c(Br)c(=O)n1Cc1cccc(CNC(=O)CO)c1
104 | < 1 µM | Cc1ccc(CO)cc1-n1c(C)cc(OCc2ccc(F)cc2F)c(Br)c1=O
105 | < 1 µM | Cc1cc(OCc2ccc(F)cc2F)c(Br)c(=O)n1Cc1ccc(C(=O)NC(C)C)cc1
106 | < 1 µM | Cc1cc(OCc2ccc(F)cc2F)c(Br)c(=O)n1Cc1ccc(CN2CCOCC2)cc1
107 | < 1 µM | Cc1cc(OCc2ccc(F)cc2F)c(Br)c(=O)n1Cc1cccc(CN)c1
108 | < 1 µM | Cc1cc(NCc2ccc(F)cc2F)c(Cl)c(=O)n1Cc1cccc(C#N)c1
